The target of this test is Gastrin-releasing peptide receptor (Homo sapiens, UniProt P30550). The test is described as follows: Displacement of [125I-Tyr4]BN form BB2 receptor in human PC3 cells. The test is classed as cell-based, PC-3. Background: Loss of bound radioactivity is the signal in a displacement assay; it reports binding, not function.

The structures appear in SMILES notation.

IC50 data for two compounds are collected here from ChEMBL document CHEMBL1137776, “Structural assessment and biological evaluation of two N3S bombesin derivatives” (J Med Chem, 2009).

Gastrin-releasing peptide receptor, sequence (P30550 whole entry): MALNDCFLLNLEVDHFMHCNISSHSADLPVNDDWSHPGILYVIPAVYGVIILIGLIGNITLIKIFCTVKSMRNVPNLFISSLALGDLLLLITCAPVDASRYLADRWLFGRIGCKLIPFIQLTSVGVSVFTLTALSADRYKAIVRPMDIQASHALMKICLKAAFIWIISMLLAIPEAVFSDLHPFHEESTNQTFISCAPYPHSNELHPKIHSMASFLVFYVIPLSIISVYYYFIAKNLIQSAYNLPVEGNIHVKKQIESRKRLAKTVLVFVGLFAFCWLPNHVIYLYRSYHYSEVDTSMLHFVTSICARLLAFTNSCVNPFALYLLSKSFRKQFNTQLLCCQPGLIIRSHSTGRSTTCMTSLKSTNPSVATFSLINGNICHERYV

`CSCC[C@H](NC(=O)[C@H](CC(C)C)NC(=O)[C@H](Cc1cnc[nH]1)NC(=O)CNC(=O)[C@@H](NC(=O)[C@H](C)NC(=O)[C@H](Cc1c[nH]c2ccccc12)NC(=O)[C@H](CCC(N)=O)NC(=O)[C@H](CC(N)=O)NC(=O)CNC(=O)[C@H](CC(C)C)NC(=O)[C@H](CCCNC(=N)N)NC(=O)[C@H](CCC(N)=O)NC(=O)CCCCCNC(=O)[C@H](CS)NC(=O)CNC(=O)CN)C(C)C)C(N)=O`: the IC50 came out at 0.59 nM. `CSCC[C@H](NC(=O)[C@H](CC(C)C)NC(=O)[C@H](Cc1cnc[nH]1)NC(=O)CNC(=O)[C@@H](NC(=O)[C@H](C)NC(=O)[C@H](Cc1c[nH]c2ccccc12)NC(=O)[C@H](CCC(N)=O)NC(=O)CCCCCNC(=O)[C@H](CS)NC(=O)CNC(=O)CN)C(C)C)C(N)=O` yielded an IC50 of 1.45 nM.

A word on the IC50: it is the point on the concentration scale where inhibition reaches its midpoint. High values mean weaker potency in that assay, low ones greater potency in that assay.
